The values below come from US20260308173A1, “OXAZOLOPYRIDIN-7(4H)-ONE WRN INHIBITORS” (NIMBUS WADJET, INC., priority 2023, published 2026).

One experiment concerns the target T1, human Werner helicase (Homo sapiens, UniProt Q14191, L1074F).
T1 construct: Uniprot Q14191, amino acids 517-1235 with L1074F point mutation; TEV-cleavable 8xHis tag (C, cleaved yes); made in house; host or cells: Sf9 insect cells (baculovirus)
Put plainly: WRN (BV08) ADP-Glo Assay. Particulars: WRN-BV08 (517-1235 L1074F) 0.15 nM, 0.1 nM DNA duplex, ATP, 15 min preincubation, 60 min at 25° C, pH 7.5; read-out: ADP-Glo_hWRN_IC50. It counts as biochemical. From the text:
Example 2: WRN (BV08) ADP-Glo Assay Protocol
Bovine skin gelatin (BSG), dimethyl sulfoxide (DMSO), Pluronic F-127 and tris(2-carboxyethyl)phosphine hydrochloride solution (TCEP) were purchased from Sigma-Aldrich (St. Louis, MO) at the highest level of purity possible. Bicine buffer solution was purchased from Alfa Aesar (Tewksbury, MA) and compound NSC-617145 was purchased from Tocris (Minneapolis, MN). DNA duplex was synthesized at BGI (Shenzhen, China) and was composed of strand 1 with the sequence 5′-[…]-3′ (SEQ ID NO.: 1) and strand 2 with the sequence 5′-[…]-3′ (SEQ ID NO.: 2). DNA strands were annealed by heating to 95° C. for 5 minutes followed by slow cooling to room temperature. Compounds in 100% DMSO (0.1 μl) were spotted into a 384-well white polystyrene Optiplate-384 (Perkin Elmer; Waltham, MA) assay plate using a LabCyte Echo 550 (Agilent; Santa Clara, CA). DMSO (0.1 μl) was added to columns 12, rows A-H and column 24, rows I-P for the maximum signal control. Compound NSC-617145 (0.1 μl) was added to columns 12, rows I-P and 24, rows A-H for the minimum signal control (100% inhibition). Compounds/DMSO were preincubated for 15 minutes at 25° C. with 5 μl 2×WRN (BV08), prepared as described below, in assay buffer containing 20 mM Bicine (pH=7.5), 1 mM MgCl2, 10 mM KCl, 0.1% Pluronic F-127, 0.005% BSG, 1 mM TCEP. The reaction was initiated by the addition of 5 μl 2× substrate mixture in assay buffer and incubated for 60 minutes at 25° C. The final concentrations of the assay components were 0.15 nM WRN, 5 µM ATP, and 0.1 nM DNA duplex. The final DMSO concentration was 1% and the reference compound concentration (NSC-617145) used for the minimal signal control was 20 μM. The reaction was stopped by the addition of the ADP-Glo Kit components (Promega; Madison, WI) as directed and the relative luminescence units (RLU) were read on an Envision 2104 (Perkin Elmer; Waltham, MA).
Where RLU=relative luminescence units, sample=signal in sample well, and MIN and MAX are the respective minimum and maximum signal controls.
Y=Bottom+(Top−Bottom)/(1+(IC50/X)^Hill Slope)
Where top and bottom are normally allowed to float but may be fixed at 100 or 0 respectively in a 3-parameter fit. Y is the % inhibition and X is the compound concentration.
Molecular Biology and virus production. The DNA encoding human Werner helicase (Uniprot Q14191, amino acids 517-1235 with L1074F point mutation) was generated with codon-optimization for E. coli expression and subcloned into the pFastBac vector with a TEV cleavable 8×His tag (WRN—BV08). The baculovirus from the expression plasmid WRN—BV08 was generated from transfection and amplification following the manufacturer's instructions.
Sf9 cells grown in SF900II media were infected with 1:200 WRN—BV08 P2 virus and incubated for protein expression for 72 h at 27° C. The WRN protein was purified using the following protocol. The cell pellets were thawed and resuspended in buffer A (50 mM Tris, pH 7.5, 500 mM NaCl, 1 mM TCEP, 10% Glycerol) supplemented with 0.5% CHAPS, 1 mM [COMPOUND LEFT OUT], 1 μg/ml Leupeptin, 1 μg/ml Pepstatin, and the Pierce Universal Nuclease and cocktail tablet. Cleared lysates were loaded onto a Ni Sepharose™ excel column and washed with buffer A and bound protein was eluted with buffer A supplemented with 300 mM imidazole. The eluted protein was dialyzed against buffer A and digested by His-tagged TEV (1:5 ratio) overnight at 4° C. […]

In the next experiment the target is T2, p21 (Homo sapiens).
T2 construct: p21 in-cell western after 24 h, GAPDH normalised
The experiment in a line: Effect on p21 induction in HCT116 cells. It counts as cell-based. The settings on record: HCT116 colon carcinoma cells, 24 h, p21/GAPDH ratio, percent activation vs internal reference WRN inhibitor; read-out: P21_EC50. As to the method: Example 3: Method for Determining Effect on p21 Induction in Cells
The colon carcinoma cell line HCT116 was obtained from ATCC and cultured in growth medium consisting of Mccoy's 5A Medium (Gibco 16600108) supplemented with 10% FBS (Transgene FS201-02) and 100 units/mL penicillin-streptomycin (Gibco 15140122) and maintained at 37° C. under 5% CO2. On the day of seeding, 2,000 cells in 30 μL of culture media were plated per well to Poly-D-Lysine 384 Well Black Clear Plates (Biocoat 356663) and incubated overnight at 37° C. under 5% CO2. The following day, compounds were serially diluted in DMSO for a total of 11 test concentrations. The typical starting concentration of cpds was 10 μM with 2-fold dilutions. Next, 150 nL of diluted compound was added in duplicate to the assay plate, using an Echo 655 (Labcyte). The plate was centrifuged at 500 RPM for 1 min and then incubated at 37° C. under 5% CO2 for 24 h. After 24 h, medium was removed, and cells were fixed by adding 40 μL of 4% paraformaldehyde solution to each well and incubated for 20 min at room temperature. The plate was then washed 4 times with 100 μL per well of wash buffer (PBS with 0.1% Tween-20) using a microplate washer. Next, 30 μL of ice-cold methanol was added to each well and the plate was incubated at −20° C. for 10 min. The plate was washed 4 times with 100 μL per well of wash buffer by a microplate washer, then 30 μL per well of blocking buffer ((Intercept PBS blocking buffer (LI-COR 927-70001) with 0.05% Tween-20)) was added and the plate was incubated at room temperature with shaking for 2h. Next, to each test well, 20 μL of primary antibody solution ((p21 Waf1/CIP (12D1) Rabbit mAb (Cell Signaling Technologies 2947) diluted 1:1000 and GAPDH (D4C6R) Mouse mAb (Cell Signaling Technologies 97166) diluted 1:2000 in blocking buffer)) was added and the plate was placed at 4° C., overnight. The following day, the plate was washed 5 times with 100 μL per well of wash buffer using a microplate washer for 5 min. 20 μL per well of secondary antibody ((IRDye 680CW Goat anti-Mouse IgG (H+L) (LI-COR 926-68070) diluted 1:2000 in Blocking Buffer and IRDye 800CW Goat anti-Rabbit IgG (H+L) (LI-COR 926-32211) diluted 1:2000 in Blocking Buffer)) was then added and the plate was stored for 2 h in the dark at room temperature with shaking. The plate was then washed 4 times with 100 μL per well of wash buffer again using a microplate washer. Finally, the p21 signal and the GAPDH signal were quantified using a LI-COR Odyssey CLx Imager machine reading at 800 nm and 700 nm, respectively. Each plate contained DMSO control (low control) and an internal reference WRN inhibitor (high control) respectively. For quantitation, the 800 nm/700 nm ratio was calculated for each well to give fold p21 induction and then percent activation for each compound well was calculated as follows ((100×(ratio cpd well−ratio low control)/(ratio high control−ratio low control)). EC50 values for each compound was generated after non-linear regression curve fitting using commercially available software.

T1 sequence (Q14191 with tags, fused parts or gaps L1074F): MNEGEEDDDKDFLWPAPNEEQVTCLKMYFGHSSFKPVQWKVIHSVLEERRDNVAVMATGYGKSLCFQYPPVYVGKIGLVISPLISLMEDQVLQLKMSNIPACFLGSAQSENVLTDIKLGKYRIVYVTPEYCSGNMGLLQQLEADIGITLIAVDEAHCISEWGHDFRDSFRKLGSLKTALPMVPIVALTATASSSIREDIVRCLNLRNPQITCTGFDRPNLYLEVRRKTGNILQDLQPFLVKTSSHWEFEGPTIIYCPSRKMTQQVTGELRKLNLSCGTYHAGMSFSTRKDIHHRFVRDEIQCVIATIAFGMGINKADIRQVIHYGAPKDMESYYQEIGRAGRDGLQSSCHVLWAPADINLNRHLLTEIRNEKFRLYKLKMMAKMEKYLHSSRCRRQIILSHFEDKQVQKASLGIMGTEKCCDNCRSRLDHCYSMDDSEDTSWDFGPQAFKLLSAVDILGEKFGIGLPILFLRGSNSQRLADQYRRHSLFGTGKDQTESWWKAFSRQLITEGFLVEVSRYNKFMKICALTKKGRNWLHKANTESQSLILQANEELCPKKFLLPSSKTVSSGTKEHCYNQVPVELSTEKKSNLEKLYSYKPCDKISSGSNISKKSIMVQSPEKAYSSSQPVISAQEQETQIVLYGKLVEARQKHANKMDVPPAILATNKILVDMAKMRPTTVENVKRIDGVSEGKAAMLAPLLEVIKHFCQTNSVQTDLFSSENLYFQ
T2 sequence (Q14191 whole entry): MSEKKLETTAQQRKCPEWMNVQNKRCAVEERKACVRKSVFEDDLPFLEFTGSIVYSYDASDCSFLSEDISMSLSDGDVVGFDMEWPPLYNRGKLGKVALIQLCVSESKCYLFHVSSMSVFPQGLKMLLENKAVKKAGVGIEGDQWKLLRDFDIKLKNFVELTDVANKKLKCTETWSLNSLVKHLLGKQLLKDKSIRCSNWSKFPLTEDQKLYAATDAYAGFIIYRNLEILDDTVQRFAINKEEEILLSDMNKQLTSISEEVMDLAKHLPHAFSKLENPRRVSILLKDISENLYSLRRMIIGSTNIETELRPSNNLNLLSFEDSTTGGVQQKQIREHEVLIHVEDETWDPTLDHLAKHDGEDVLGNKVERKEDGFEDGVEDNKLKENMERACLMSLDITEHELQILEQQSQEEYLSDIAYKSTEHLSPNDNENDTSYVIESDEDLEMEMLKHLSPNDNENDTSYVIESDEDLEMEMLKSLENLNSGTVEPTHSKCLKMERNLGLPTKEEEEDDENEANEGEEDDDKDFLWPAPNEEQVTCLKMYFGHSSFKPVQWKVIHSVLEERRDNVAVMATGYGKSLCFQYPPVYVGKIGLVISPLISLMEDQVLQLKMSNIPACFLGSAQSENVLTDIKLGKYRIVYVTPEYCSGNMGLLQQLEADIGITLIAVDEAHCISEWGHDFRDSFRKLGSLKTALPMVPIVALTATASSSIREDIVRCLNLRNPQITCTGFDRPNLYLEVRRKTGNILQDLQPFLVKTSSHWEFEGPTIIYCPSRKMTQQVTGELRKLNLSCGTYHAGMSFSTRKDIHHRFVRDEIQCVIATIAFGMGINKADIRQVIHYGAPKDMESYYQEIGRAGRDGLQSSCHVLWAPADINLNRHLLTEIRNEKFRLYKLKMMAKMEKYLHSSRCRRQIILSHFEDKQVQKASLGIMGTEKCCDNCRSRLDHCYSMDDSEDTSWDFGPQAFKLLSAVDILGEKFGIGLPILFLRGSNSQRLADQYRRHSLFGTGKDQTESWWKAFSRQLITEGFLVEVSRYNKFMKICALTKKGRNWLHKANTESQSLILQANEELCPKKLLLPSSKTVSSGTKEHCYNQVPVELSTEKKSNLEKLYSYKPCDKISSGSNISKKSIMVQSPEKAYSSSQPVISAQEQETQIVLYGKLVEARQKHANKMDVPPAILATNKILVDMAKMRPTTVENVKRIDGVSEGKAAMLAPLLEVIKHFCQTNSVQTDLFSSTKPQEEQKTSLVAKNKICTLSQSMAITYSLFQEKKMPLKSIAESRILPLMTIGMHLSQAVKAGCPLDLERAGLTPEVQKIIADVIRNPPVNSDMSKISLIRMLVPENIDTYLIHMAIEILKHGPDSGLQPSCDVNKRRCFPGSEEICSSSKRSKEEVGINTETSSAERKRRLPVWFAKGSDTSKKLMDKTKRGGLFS

Consider `CCc1c(N2CCN(C(=O)c3ncnc(C)c3O)CC2)c(=O)c2nc(-c3ccnc(OC)c3)oc2n1CC(=O)Nc1ccc(C(F)(F)F)cc1Cl` [1-2], for which the IC50 at human Werner helicase was at most 5 nM. The same measure, in the same setting: the figure for `CCc1c(N2CCN(C(=O)c3ncnc(C)c3O)CC2)c(=O)c2oc(-c3ccnc(OC)c3)nc2n1CC(=O)NC12CC(C(F)(F)F)(C1)C2` [1-3] is 5 to 50 nM. As to `CCc1c(N2CCN(C(=O)c3ncnc(C)c3O)CC2)c(=O)c2oc(-c3ccnc(OC)c3)nc2n1CC(=O)Nc1ccc(C(F)(F)F)cc1Cl` [I-1, N-(2-chloro-4-(trifluoromethyl)phenyl)-2-(5-ethyl-6-(4-(5-hydroxy-6-methylpyrimidine-4-carbonyl)piperazin-1-y1)-2-(2-methoxypyridin-4-yl)-7-oxooxazolo[4,5-b]pyridin-4(7H)-yl)acetamide], at p21 (Homo sapiens), the EC50 was at most 500 nM. Besides, the IC50 at human Werner helicase is at most 5 nM.

`CCc1c(N2CCN(C(=O)c3ncnc(C)c3O)CC2)c(=O)c2nc(-c3ccnc(OC)c3)oc2n1CC(=O)Nc1ccc(C(F)(F)F)cc1Cl` [I-2, N-(2-chloro-4-(trifluoromethyl)phenyl)-2-(5-ethyl-6-(4-(5-hydroxy-6-methylpyrimidine-4-carbonyl)piperazin-1-yl)-2-(2-methoxypyridin-4-yl)-7-oxooxazolo[5,4-b]pyridin-4(7H)-yl)acetamide]: on p21 (Homo sapiens), the EC50 was at most 500 nM. Turning to `CCc1c(N2CCN(C(=O)c3ncnc(C)c3O)CC2)c(=O)c2oc(-c3ccnc(OC)c3)nc2n1CC(=O)NC12CC(C(F)(F)F)(C1)C2` [I-3, 2-(5-ethyl-6-(4-(5-hydroxy-6-methylpyrimidine-4-carbonyl)piperazin-1-yl)-2-(2-methoxypyridin-4-yl)-7-oxooxazolo[4,5-b]pyridin-4(7H)-yl)-N-(3-(trifluoromethyl)bicyclo[1.1.1]pentan-1-yl)acetamide], the EC50 on p21 (Homo sapiens) fell in the range of 2000 to 5000 nM. Turning to `CCc1c(N2CCN(C(=O)c3ncnc(C)c3O)CC2)c(=O)c2nc(-c3ccnc(OC)c3)oc2n1CC(=O)NC12CC(C(F)(F)F)(C1)C2` [I-4, 2-(5-ethyl-6-(4-(5-hydroxy-6-methylpyrimidine-4-carbonyl)piperazin-1-yl)-2-(2-methoxypyridin-4-yl)-7-oxooxazolo[5,4-b]pyridin-4(7H)-y1)-N-(3-(trifluoromethyl)bicyclo[1.1.1]pentan-1-yl)acetamide], the EC50 on p21 (Homo sapiens) is above 5000 nM. Moreover, the IC50 on human Werner helicase is 5 to 50 nM. Consider `CCc1c(N2CCN(C(=O)c3c(O)ccc4ncoc34)CC2)c(=O)c2oc(-c3ccnc(OC)c3)nc2n1CC(=O)Nc1ccc(C(F)(F)F)cc1Cl` [I-5, N-(2-chloro-4-(trifluoromethyl)phenyl)-2-(5-ethyl-6-(4-(6-hydroxybenzo[d]oxazole-7-carbonyl)piperazin-1-y1)-2-(2-methoxypyridin-4-yl)-7-oxooxazolo[4,5-b]pyridin-4(7H)-y1)acetamide], for which the EC50 at p21 (Homo sapiens) was at most 500 nM. For the same compound, the IC50 at human Werner helicase is at most 5 nM.
